The text below walks through data of patent publication US20090317496A1, “Method for Preventing and Treating the Disease Caused by Vascular Damage and the Use Thereof” (priority 2005, published 2009).

For assay [1], the system named is retinal vascular endothelial cell. As to the kind of experiment: MTT assay, apoptosis of retinal vascular endothelial cell caused by the lack of serum. In kind it is cell-based, human. The following applies: FBS free medium, 10 μg/ml, 24 hours; FIG. 3c. The procedure: (§1) The HUVEC (human umbilical venous endothelial cell) and retinal vascular endothelial cell (cell-systems, USA) were incubated at M199 medium containing 20% (w/v) FBS (HyClone, Canada), 100 units/m ? of penicillin (Invitrogen, USA), 100 μg/m ? of streptomycin (Invitrogen, USA), 3 ng/m ? of bFGF (basic fibroblast growth factor, Upstate Biotechnology, USA) and 5 units/m ? of heparin (Life Technologies, USA) under 5% CO2 gas condition at 37° C. (See FIG. 2a and FIG. 2b).
(§2) To investigate the suppression effect of SG was determined by (3-[4,5-dimethylthiazol-2-yl]-2,5-diphenyl tetrazolium bromide (MTT) assay method disclosed in the literature (Wang Z et al., Biol., Pharm. Bull., 24, pp 159-162, 2001).
(§3) HUVEC and retinal vascular endothelial cell were spread on 24-well plates (3×10^4 cells/well) and were incubated for 24 hours. The mediums were substituted with new medium containing 20% (w/v) FBS and FBS free medium respectively. The FBS free medium was treated with various concentrations of SG, i.e., 0, 1, 5, 10, 20 μg/m ? . The medium was incubated for 24 hours. After the incubation, MTT assay was performed.
(§4) To investigate the suppressive effect of SG, Rb1, Rg1, Re, Rg3, Rg5 and Rk1 on the cell apoptosis if retinal vascular endothelial cell caused by the lack of serum, the effect were determined by (3-[4,5-dimethylthiazol-2-yl]-2,5-diphenyl tetrazolium bromide (MTT) assay method disclosed in the literature (Wang Z et al., Biol., Pharm. Bull., 24, pp 159-162, 2001).
(§5) HUVEC and retinal vascular endothelial cell were spread on 24-well plates (3×10^4 cells/well) and were incubated for 24 hours respectively. The mediums were substituted with new medium containing 20% (w/v) FBS and FBS free medium respectively. The FBS free medium was treated with 10 μg/m ? of SG, Rb1, Rg1, Re, Rg3, Rg5 and Rk1 and the medium was incubated for 24 hours. After the incubation, MTT assay was performed.
In general terms: Tetrazolium assays rely on reduction of a dye to a coloured formazan, in cell work by metabolically active cells.

Assay [2] deals with vascular endothelial cells (HUVEC). As to the kind of experiment: MTT assay, Rk1 on apoptosis of vascular endothelial cell caused by the lack of serum. The note with it: FBS free medium, Rk1 0, 0.5, 1, 5, 10 μg/ml, 24 hours; FIG. 4. It counts as cell-based, human. The procedure:
FIG. 4 is the result of MTT assay showing suppressive effect of Rk1 on the apoptosis of HUVEC in medium,
Vascular endothelial cell were spread on 24-well plates (3×10^4 cells/well) and were incubated for 24 hours. The mediums were substituted with new medium containing 20% (w/v) FBS and FBS free medium respectively. The FBS free medium was treated with various concentrations of Rk1, i.e., 0, 0.5, 1, 5, 10 μg/m ? and incubated for 24 hours. After the incubation, MTT assay was performed.

Assay [3] relates to tight junction proteins ZO-1, ZO-2 and occludin. As to the kind of experiment: Western blot of tight junction proteins in mouse retina. It counts as in vivo, C57/BL6 mice. The following applies: FIG. 6b. Background: A western blot detects proteins with antibodies after separation by electrophoresis.
Assay [4] concerns retinal vessel of C57/BL6 mice. As to the kind of experiment: Angiography with FITC-dextran, permeability of retinal vessel. The following applies: FIG. 11. It counts as in vivo. The procedure:
Both of 100 ng of VEGF and 30 μg of Rk1 were injected into the retina of C57/BL6 mice (Orient, Korea). After 24 hours, the mice were anesthetized and FITC-dextran was injected into the heart to allow fluorescent material to flow in blood. […] In the only VEGF-injected mice, it has been confirmed that the fluorescent material was exuded from neighboring tissues around blood vessel caused by the increased permeability of retinal vessel however the exudation in VEGF was recovered by the treatment of Rk1.
Likewise, it has been also confirmed that the fluorescent material was exuded from neighboring tissues around blood vessel caused by the increased permeability of retinal vessel in diabetes induced mice however the exudation was recovered by the treatment of Rk1.

The subject of assay [5] is tight junction proteins ZO-1, ZO-2 and occludin. As to the kind of experiment: Western blot of tight junction proteins in human retinal vascular endothelial cells. It counts as cell-based. The note with it: human retinal endothelial cell, FIG. 6a. The procedure: Human retinal vascular endothelial cell were spread on 60 mm dish (3×10^5 cells/well) and were incubated for 24 hours.
The cells were transferred to human endothelial SFM-basal growth medium (Invitrogen, USA), incubated for 24 hours and transferred to new human endothelial SFM-basal growth medium again. The medium was treated with 20 ng/m ? of VEGF (vascular endothelial growth factor) and Rk1, and incubated for 6 hours. After the incubation, the cells were collected to induce lysis and western blot analysis was performed.

In assay [6] the test system is vascular endothelial cells (HUVEC). As to the kind of experiment: DAPI staining, DNA fragmentation of vascular endothelial cell caused by the lack of serum. The following applies: FBS free medium, Rk1 0, 0.5, 1, 5, 10 μg/ml, 24 hours; FIG. 5. In kind it is cell-based, human. The procedure:
FIG. 5 is the result of staining with DAPI showing suppressive effect of Rk1 on the apoptosis of HUVEC in medium,
Vascular endothelial cell were spread on 35 mm dish (1.5×10^5 cells/well) and were incubated for 24 hours. The mediums were substituted with new medium containing 20% (w/v) FBS and FBS free medium respectively. The FBS free medium was treated with various concentrations of Rk1, i.e., 0, 0.5, 1, 5, 10 μg/m ? and incubated for 24 hours. After the incubation, the medium was washed with PBS solution 2 times, fixed with 2% of paraformaldehyde and washed with PBS solution 2 times again. DAPI (4′,6-Diamidino-2-phenylindole-2-HCl. Calbiochem, USA) solution was added thereto, incubated for 30 minutes in darkroom and washed with PBS two times. The DNA fragmentation was measured by fluorescent microscope (Fluorescent microscope, Axioplan2, ZEISS, Germany) after mounting with cover slip.

The subject of assay [7] is tight junction protein ZO-1, ZO-2 and occludin. As to the kind of experiment: Immunocytochemistry of tight junction proteins in human retinal vascular endothelial cells. The note with it: human retinal endothelial cell. It counts as cell-based. The procedure:
Human retinal vascular endothelial cell were spread on 35 mm dish (2×10^5 cells/well) and were incubated for 24 hours. The cells were transferred to human endothelial SFM-basal growth medium (Invitrogen, USA), incubated for 24 hours and transferred to new human endothelial SFM-basal growth medium again. The medium was treated with 20 ng/m ? of VEGF (vascular endothelial growth factor) and Rk1, and incubated for 6 hours. After the incubation, the medium was washed with PBS solution and immunocytochemistry analysis was performed to determine the change of tight junction protein.

Assay [8] has as its system HUVEC (human umbilical venous endothelial cell). As to the kind of experiment: MTT assay, apoptosis of HUVEC caused by the lack of serum. The following applies: FBS free medium, 10 μg/ml, 24 hours; FIG. 3c. It counts as cell-based. The protocol:
as §1, §2, §3, §4, §5

Assay [9] concerns tight junction protein ZO-1, ZO-2 and occludin. As to the kind of experiment: Immunocytochemistry of tight junction proteins in mouse retina. In kind it is in vivo, C57/BL6 mice.

As for `CC(C)=CCC[C@](C)(O[C@@H]1O[C@H](CO[C@@H]2O[C@H](CO)[C@@H](O)[C@H](O)[C@H]2O)[C@@H](O)[C@H](O)[C@H]1O)[C@H]1CC[C@]2(C)[C@@H]1[C@H](O)C[C@@H]1[C@@]3(C)CC[C@H](O[C@@H]4O[C@H](CO)[C@@H](O)[C@H](O)[C@H]4O[C@@H]4O[C@H](CO)[C@@H](O)[C@H](O)[C@H]4O)C(C)(C)[C@@H]3CC[C@]12C` [Rb1, ginsenoside Rb1, reference compound], the “apoptosis and cell viability of retinal vascular endothelial cells (MTT assay)” value in [1] was “did not”.
`C=C(CCC=C(C)C)[C@H]1CC[C@]2(C)[C@@H]1[C@H](O)C[C@@H]1[C@@]3(C)CC[C@H](O[C@@H]4O[C@H](CO)[C@@H](O)[C@H](O)[C@H]4O[C@@H]4O[C@H](CO)[C@@H](O)[C@H](O)[C@H]4O)C(C)(C)[C@@H]3CC[C@]12C` [Rk1, ginsenoside Rk1]: the “apoptosis and cell viability of vascular endothelial cells (MTT assay)” value in [2] is “inhibited the apoptosis”. For the same molecule, the “apoptosis and cell viability of retinal vascular endothelial cells (MTT assay)” value in assay [1] is recorded as “inhibited the apoptosis”. Also, the “recovering effect on the decrease of tight junction proteins ZO-1, ZO-2 and occludin (western blot)” value was “potent recovering effect” in assay [3] (decrease caused by VEGF 100 ng, 30 μg Rk1 injected into the retina, 24 hours, mouse); “potent recovering effect” in [3] (decrease caused by diabetes, mouse retina); “potent recovering effect” in assay [5] (decrease caused by AGE (advanced glycation end product)); “potent recovering effect” in assay [5] (decrease caused by VEGF 20 ng/ml, 6 hours). Moreover, the “exudation of fluorescent material (increased permeability of retinal vessel), angiography” value is listed as “recovered” in assay [4] (VEGF 100 ng and 30 μg Rk1 injected into the retina, 24 hours, mouse); “recovered” in assay [4] (diabetes induced mice). In addition, in assay [6], the “DNA fragmentation of vascular endothelial cells (DAPI)” value is “suppressed the DNA fragmentation”. Also, the “recovering effect on the decrease of tight junction protein ZO-1, ZO-2 and occludin (immunocytochemistry)” value in assay [7] (decrease caused by AGE, FIG. 7) is “potent recovering effect”; in assay [7] (decrease caused by VEGF 20 ng/ml, 6 hours, FIG. 8), “potent recovering effect”; in [9] (decrease caused by VEGF 100 ng, 30 μg Rk1 injected into the retina, 24 hours, mouse, FIG. 9), “potent recovering effect”; in [9] (decrease caused by diabetes, mouse retina, FIG. 10) it was “potent recovering effect”. For the same molecule, the “apoptosis and cell viability of HUVEC (MTT assay)” value in [8] is “inhibited the apoptosis”.
For `CC(C)=CCC[C@](C)(O[C@@H]1O[C@H](CO)[C@@H](O)[C@H](O)[C@H]1O)[C@H]1CC[C@]2(C)[C@@H]1[C@H](O)C[C@@H]1[C@@]3(C)CC[C@H](O)C(C)(C)[C@@H]3[C@@H](O[C@@H]3O[C@H](CO)[C@@H](O)[C@H](O)[C@H]3O)C[C@]12C` [Rg1, ginsenoside Rg1, reference compound], the “apoptosis and cell viability of retinal vascular endothelial cells (MTT assay)” value in assay [1] is reported as “did not”.
On the same count and under the same terms, with `CC(C)=CCC[C@](C)(O[C@@H]1O[C@H](CO)[C@@H](O)[C@H](O)[C@H]1O)[C@H]1CC[C@]2(C)[C@@H]1[C@H](O)C[C@@H]1[C@@]3(C)CC[C@H](O)C(C)(C)[C@@H]3[C@@H](O[C@@H]3O[C@H](CO)[C@@H](O)[C@H](O)[C@H]3O[C@@H]3O[C@@H](C)[C@H](O)[C@@H](O)[C@H]3O)C[C@]12C` [Re, ginsenoside Re, reference compound] the entry was “did not”.
In the case of `CC(C)=CC/C=C(\C)[C@H]1CC[C@]2(C)[C@@H]1[C@H](O)C[C@@H]1[C@@]3(C)CC[C@H](O[C@@H]4O[C@H](CO)[C@@H](O)[C@H](O)[C@H]4O[C@@H]4O[C@H](CO)[C@@H](O)[C@H](O)[C@H]4O)C(C)(C)[C@@H]3CC[C@]12C` [Rg5, ginsenoside Rg5], the “apoptosis and cell viability of retinal vascular endothelial cells (MTT assay)” value in assay [1] is “inhibited the apoptosis”. The “apoptosis and cell viability of HUVEC (MTT assay)” value in [8] is listed as “inhibited the apoptosis”.
On to `CC(C)=CCC[C@](C)(O)[C@H]1CC[C@]2(C)[C@@H]1[C@H](O)C[C@@H]1[C@@]3(C)CC[C@H](O[C@@H]4O[C@H](CO)[C@@H](O)[C@H](O)[C@H]4O[C@@H]4O[C@H](CO)[C@@H](O)[C@H](O)[C@H]4O)C(C)(C)[C@@H]3CC[C@]12C` [Rg3, ginsenoside Rg3], for which, in [1], the “apoptosis and cell viability of retinal vascular endothelial cells (MTT assay)” value is given as “inhibited the apoptosis”. In addition, the “apoptosis and cell viability of HUVEC (MTT assay)” value in assay [8] is recorded as “inhibited the apoptosis”.
